{
  "source": "patent US12492163B2",
  "about": "“9H-fluorene derivatives or their pharmaceutically acceptable salts” (priority 2020, dated 2025)",
  "key": {"[1]": {"biological_target": "horse plasma butyrylcholinesterase (eqBuChE) (Equus caballus (Horse), UniProt P81908)", "sequence (P81908 whole entry)": "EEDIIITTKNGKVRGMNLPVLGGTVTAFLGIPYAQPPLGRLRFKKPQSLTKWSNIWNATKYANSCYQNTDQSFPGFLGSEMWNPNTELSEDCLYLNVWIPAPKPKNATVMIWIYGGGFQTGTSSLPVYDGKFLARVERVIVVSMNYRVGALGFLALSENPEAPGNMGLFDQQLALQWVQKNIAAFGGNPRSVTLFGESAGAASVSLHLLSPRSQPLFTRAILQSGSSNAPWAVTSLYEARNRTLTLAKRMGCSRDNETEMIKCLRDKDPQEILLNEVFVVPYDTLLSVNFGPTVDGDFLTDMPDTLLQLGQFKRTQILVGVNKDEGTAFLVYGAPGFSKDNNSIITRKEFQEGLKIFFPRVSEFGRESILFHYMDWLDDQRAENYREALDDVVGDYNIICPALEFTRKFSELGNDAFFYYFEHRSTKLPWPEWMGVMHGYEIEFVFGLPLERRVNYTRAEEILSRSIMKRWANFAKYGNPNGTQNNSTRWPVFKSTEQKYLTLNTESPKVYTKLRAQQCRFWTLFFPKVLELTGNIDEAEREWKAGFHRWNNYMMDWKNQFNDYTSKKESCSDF", "assay": "Ellman's test, inhibition of horse plasma butyrylcholinesterase", "assay_type": "biochemical", "method_in_brief": "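Modified Ellman assay: compound preincubated 5 min with enzyme and DTNB in 0.1 M phosphate buffer pH 8.0 at 25° C (eqBuChE) or 36° C (hBuChE), then butyrylthiocholine added; absorbance change at 412 nm read after 5 min. Screening at 10 μM (eqBuChE) or 1 μM (hBuChE); IC50 by non-linear regression, triplicates.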"}, "[2]": {"system": "ICR-CD1 mice", "assay": "Acute toxicity study in mice", "assay_type": "in vivo, Mus musculus", "set-up": "key to Tremor / Convulsions / Hyper/Hypoventilation / Drooping eyelids / General exhaustion: mild (+); moderate (++); severe (+++)", "description": "The research was carried out at the Department of Toxicology and Military Pharmacy, Faculty of Military Health Sciences in Hradec Kralove, Defense University in Brno in the Czech Republic, at the Biomedical Research Center and at the Department of Clinical Biochemistry of the University Hospital Hradec Kralove in the Czech Republic. All procedures were carried out under the supervision of the Ethics Committee of the Faculty of Military Health Sciences (No. 20/19; MO 215611/2019-684800). Male and female ICR-CD1 strain of domestic mice (Mus musculus) (body weight approx. 20-25 g) were used in the research. The animals were kept in standard, appropriately sized cages, divided into groups of a maximum of 8 animals. The animals in the test groups were administered the test compound intraperitoneally (doses in the acute toxicity study: 10, 20, 40 and 60 mg/kg, dose in the study of pharmacokinetic parameters 10 mg/kg). Control groups received 1% Tween 80.\nThe study assesses the toxicity profile of the compound by observation of emerging adverse effects, biochemical parameters analysis and histopathological analysis, and determines the maximum tolerated dose (MTD). Mice were randomly assigned to experimental groups consisting of two males and two females. […] Toxic symptoms were classified as in the previous published study [J. Misik]. Weight loss or reduction in food consumption was assessed according to the FELAS classification [K. L. Chapman] for the first two hours, and then periodically for the next 46 hours. All 48-hour survivors were euthanized. Blood was collected for biochemical analysis and selected organs (kidneys and liver) were collected for histopathological examination. Venous blood was collected in heparinized tubes. Plasma was then separated (3000×g, 5 min, 4° C.) using a centrifuge. The concentration of urea and creatinine as well as the activity of alanine aminotransferase (ALT), aspartate aminotransferase (AST), alkaline phosphatase (ALP), amylase and lactate dehydrogenase (LDH) were determined in an accredited biochemical laboratory. The harvested organs: liver and kidneys were used for standard histopathological examination. Organs were fixed with 10% neutral buffered formalin, processed for histology, and stained with hematoxylin and eosin as in a previous published study [J. Pejchal]. Histopathological changes were assessed microscopically."}, "[3]": {"details": "10 mg/kg (MTD) i.p., mouse Female1"}, "[4]": {"details": "10 mg/kg (MTD) i.p., mouse Female2"}, "[5]": {"details": "10 mg/kg (MTD) i.p., mouse Male1"}, "[6]": {"details": "10 mg/kg (MTD) i.p., mouse Male2"}, "[7]": {"details": "plasma, 10 mg/kg (MTD) i.p., 48 h"}},
  "data": [
    {"smiles": "O[C@H](CNCC1CC1)[C@H](Cc1ccccc1)NC1c2ccccc2-c2ccccc21", "note": "[JT-3, (2R,3S)-3-((9H-fluoren-9-yl)amino)-1-((cyclopropylmethyl)amino)-4-phenylbutan-2-ol]", "values": [
      {"measurement": "IC50", "setting": "[1]", "value": 313, "unit": "nM"},
      {"measurement": "changes in biochemical parameters (urea, creatinine, liver enzymes, ALP, amylase, LDH) compared to control", "setting": "[2]; 10 mg/kg (MTD) i.p.", "value": "no statistically significant changes"},
      {"measurement": "histopathological changes (liver, kidneys)", "setting": "[2]; 10 mg/kg (MTD) i.p.", "value": "only sporadic infiltration of neutrophils into the liver and adipose tissue was observed in two animals, without any signs of liver or kidney damage"},
      {"measurement": "Body weight change at 24 h (%)", "setting": "[2]; [3]", "value": "−3.9", "unit": "%"},
      {"measurement": "Body weight change at 48 h (%)", "setting": "[2]; [3]", "value": "−0.4", "unit": "%"},
      {"measurement": "Drooping eyelids", "setting": "[2]; [3]", "value": "+"},
      {"measurement": "General exhaustion", "setting": "[2]; [3]", "value": "+"},
      {"measurement": "Hyper/Hypoventilation", "setting": "[2]; [3]", "value": "+"},
      {"measurement": "Tremor", "setting": "[2]; [3]", "value": "+"},
      {"measurement": "Body weight change at 24 h (%)", "setting": "[2]; [4]", "value": "−5.8", "unit": "%"},
      {"measurement": "Body weight change at 48 h (%)", "setting": "[2]; [4]", "value": "−5.2", "unit": "%"},
      {"measurement": "Convulsions", "setting": "[2]; [4]", "value": "+"},
      {"measurement": "Drooping eyelids", "setting": "[2]; [4]", "value": "+"},
      {"measurement": "General exhaustion", "setting": "[2]; [4]", "value": "+"},
      {"measurement": "Hyper/Hypoventilation", "setting": "[2]; [4]", "value": "+"},
      {"measurement": "Tremor", "setting": "[2]; [4]", "value": "++"},
      {"measurement": "Body weight change at 24 h (%)", "setting": "[2]; [5]", "value": "−1.3", "unit": "%"},
      {"measurement": "Body weight change at 48 h (%)", "setting": "[2]; [5]", "value": "−2.4", "unit": "%"},
      {"measurement": "General exhaustion", "setting": "[2]; [5]", "value": "+"},
      {"measurement": "Hyper/Hypoventilation", "setting": "[2]; [5]", "value": "+"},
      {"measurement": "Tremor", "setting": "[2]; [5]", "value": "+"},
      {"measurement": "Body weight change at 24 h (%)", "setting": "[2]; [6]", "value": "−1.2", "unit": "%"},
      {"measurement": "Body weight change at 48 h (%)", "setting": "[2]; [6]", "value": "−0.7", "unit": "%"},
      {"measurement": "General exhaustion", "setting": "[2]; [6]", "value": "+"},
      {"measurement": "Hyper/Hypoventilation", "setting": "[2]; [6]", "value": "+"},
      {"measurement": "Tremor", "setting": "[2]; [6]", "value": "+"},
      {"measurement": "maximum tolerated dose (MTD)", "setting": "[2]; mice, i.p., doses tested 10, 20, 40 and 60 mg/kg", "value": 10, "unit": "mg/kg"},
      {"measurement": "ALP", "setting": "[2]; [7]", "value": "68.4 ± 27.2", "unit": "U/L"},
      {"measurement": "ALT", "setting": "[2]; [7]", "value": "29.0 ± 6.5", "unit": "U/L"},
      {"measurement": "AST", "setting": "[2]; [7]", "value": "56.8 ± 6.6", "unit": "U/L"},
      {"measurement": "Amylase", "setting": "[2]; [7]", "value": "2955 ± 501", "unit": "U/L"},
      {"measurement": "LDH", "setting": "[2]; [7]", "value": "275 ± 94", "unit": "U/L"},
      {"measurement": "Urea", "setting": "[2]; [7]", "value": "33.8 ± 8.2", "unit": "mg/dL"}
    ]}
  ]
}
